This passage reports Km and IC50 results from PMC7472518, “Ultrasensitive Detection of Enzymatic Activity Using Single Molecule Arrays” (Journal of the American Chemical Society, 2020).

SMILES strings stand for the structures. Where a name gives a salt, the structure may show the parent alone.

The target of one assay is T1, Abl (Homo sapiens, UniProt P00519).
T1 construct: purchased Millipore (Burlington, MA) 14-529
Nature of the assay: eSimoa ATP titration for Km, Abl. It is filed as biochemical. Particulars: calculated from the EC50 of the ATP response curve. From the text:
(§1) We first determined the Km values for Src and Abl. Different concentrations of ATP were used in the phosphorylation reaction, while the concentrations of peptide-modified beads and enzymes were kept constant.

A further assay addresses T2, Src (Homo sapiens, UniProt P12931).
T2 construct: purchased Millipore (Burlington, MA) 14-326
The experiment in a line: eSimoa ATP titration for Km, Src. It counts as biochemical. The settings on record: calculated from the EC50 of the ATP response curve.
Text: as §1

Another assay deals with Bcr-Abl. The settings on record: read-out: IC50 (reported); cited from earlier work.

T1 sequence (P00519 whole entry): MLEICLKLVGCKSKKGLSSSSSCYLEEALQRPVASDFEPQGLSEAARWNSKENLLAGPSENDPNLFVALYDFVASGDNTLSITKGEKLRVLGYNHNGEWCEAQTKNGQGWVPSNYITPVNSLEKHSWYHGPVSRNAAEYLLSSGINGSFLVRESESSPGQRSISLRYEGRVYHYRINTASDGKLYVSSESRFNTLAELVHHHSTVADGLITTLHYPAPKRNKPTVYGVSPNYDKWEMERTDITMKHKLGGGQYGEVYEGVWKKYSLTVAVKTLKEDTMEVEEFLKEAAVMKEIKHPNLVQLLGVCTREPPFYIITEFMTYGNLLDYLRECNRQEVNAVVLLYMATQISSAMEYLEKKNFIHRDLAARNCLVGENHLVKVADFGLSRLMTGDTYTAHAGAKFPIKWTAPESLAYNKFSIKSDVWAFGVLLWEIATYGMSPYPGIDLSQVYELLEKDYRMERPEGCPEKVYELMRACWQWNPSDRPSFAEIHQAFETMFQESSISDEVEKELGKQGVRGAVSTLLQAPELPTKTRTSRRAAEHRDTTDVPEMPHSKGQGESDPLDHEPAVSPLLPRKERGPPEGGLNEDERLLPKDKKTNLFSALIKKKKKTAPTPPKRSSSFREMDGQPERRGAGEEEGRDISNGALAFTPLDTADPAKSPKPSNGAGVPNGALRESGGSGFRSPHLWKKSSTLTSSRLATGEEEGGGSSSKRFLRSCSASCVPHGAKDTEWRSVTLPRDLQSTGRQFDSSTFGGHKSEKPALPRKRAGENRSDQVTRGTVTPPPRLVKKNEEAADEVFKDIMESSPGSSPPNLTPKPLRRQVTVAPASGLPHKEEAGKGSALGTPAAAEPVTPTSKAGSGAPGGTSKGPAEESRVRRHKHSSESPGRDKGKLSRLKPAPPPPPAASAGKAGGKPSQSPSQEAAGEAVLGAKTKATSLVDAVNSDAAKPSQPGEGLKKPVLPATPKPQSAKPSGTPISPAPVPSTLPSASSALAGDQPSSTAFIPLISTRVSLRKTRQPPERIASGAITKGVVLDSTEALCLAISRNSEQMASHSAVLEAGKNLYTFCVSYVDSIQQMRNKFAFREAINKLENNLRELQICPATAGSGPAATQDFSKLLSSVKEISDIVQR

For orientation: Km means the substrate concentration at which the rate is half of its maximum. Regarding `Nc1ncnc2c1ncn2[C@@H]1O[C@H](COP(=O)(O)OP(=O)(O)OP(=O)(O)O)[C@@H](O)[C@H]1O` [ATP, adenosine 5′-triphosphate (ATP) disodium salt hydrate], the Km was 3.69 µM at Abl and 29.2 µM at Src.

For orientation: IC50 means the concentration needed to halve the response being measured. As for `COc1cc(Nc2c(C#N)cnc3cc(OCCCN4CCN(C)CC4)c(OC)cc23)c(Cl)cc1Cl` [bosutinib], the IC50 with Bcr-Abl is […].
